Some results are limits rather than exact numbers.

In the experiment the target is T1, recombinant LRRK2 kinase (Homo sapiens, UniProt Q5S007).
T1 construct: purchased Signal Chem, Richmond, BC, Canada
T1 sequence (Q5S007 whole entry): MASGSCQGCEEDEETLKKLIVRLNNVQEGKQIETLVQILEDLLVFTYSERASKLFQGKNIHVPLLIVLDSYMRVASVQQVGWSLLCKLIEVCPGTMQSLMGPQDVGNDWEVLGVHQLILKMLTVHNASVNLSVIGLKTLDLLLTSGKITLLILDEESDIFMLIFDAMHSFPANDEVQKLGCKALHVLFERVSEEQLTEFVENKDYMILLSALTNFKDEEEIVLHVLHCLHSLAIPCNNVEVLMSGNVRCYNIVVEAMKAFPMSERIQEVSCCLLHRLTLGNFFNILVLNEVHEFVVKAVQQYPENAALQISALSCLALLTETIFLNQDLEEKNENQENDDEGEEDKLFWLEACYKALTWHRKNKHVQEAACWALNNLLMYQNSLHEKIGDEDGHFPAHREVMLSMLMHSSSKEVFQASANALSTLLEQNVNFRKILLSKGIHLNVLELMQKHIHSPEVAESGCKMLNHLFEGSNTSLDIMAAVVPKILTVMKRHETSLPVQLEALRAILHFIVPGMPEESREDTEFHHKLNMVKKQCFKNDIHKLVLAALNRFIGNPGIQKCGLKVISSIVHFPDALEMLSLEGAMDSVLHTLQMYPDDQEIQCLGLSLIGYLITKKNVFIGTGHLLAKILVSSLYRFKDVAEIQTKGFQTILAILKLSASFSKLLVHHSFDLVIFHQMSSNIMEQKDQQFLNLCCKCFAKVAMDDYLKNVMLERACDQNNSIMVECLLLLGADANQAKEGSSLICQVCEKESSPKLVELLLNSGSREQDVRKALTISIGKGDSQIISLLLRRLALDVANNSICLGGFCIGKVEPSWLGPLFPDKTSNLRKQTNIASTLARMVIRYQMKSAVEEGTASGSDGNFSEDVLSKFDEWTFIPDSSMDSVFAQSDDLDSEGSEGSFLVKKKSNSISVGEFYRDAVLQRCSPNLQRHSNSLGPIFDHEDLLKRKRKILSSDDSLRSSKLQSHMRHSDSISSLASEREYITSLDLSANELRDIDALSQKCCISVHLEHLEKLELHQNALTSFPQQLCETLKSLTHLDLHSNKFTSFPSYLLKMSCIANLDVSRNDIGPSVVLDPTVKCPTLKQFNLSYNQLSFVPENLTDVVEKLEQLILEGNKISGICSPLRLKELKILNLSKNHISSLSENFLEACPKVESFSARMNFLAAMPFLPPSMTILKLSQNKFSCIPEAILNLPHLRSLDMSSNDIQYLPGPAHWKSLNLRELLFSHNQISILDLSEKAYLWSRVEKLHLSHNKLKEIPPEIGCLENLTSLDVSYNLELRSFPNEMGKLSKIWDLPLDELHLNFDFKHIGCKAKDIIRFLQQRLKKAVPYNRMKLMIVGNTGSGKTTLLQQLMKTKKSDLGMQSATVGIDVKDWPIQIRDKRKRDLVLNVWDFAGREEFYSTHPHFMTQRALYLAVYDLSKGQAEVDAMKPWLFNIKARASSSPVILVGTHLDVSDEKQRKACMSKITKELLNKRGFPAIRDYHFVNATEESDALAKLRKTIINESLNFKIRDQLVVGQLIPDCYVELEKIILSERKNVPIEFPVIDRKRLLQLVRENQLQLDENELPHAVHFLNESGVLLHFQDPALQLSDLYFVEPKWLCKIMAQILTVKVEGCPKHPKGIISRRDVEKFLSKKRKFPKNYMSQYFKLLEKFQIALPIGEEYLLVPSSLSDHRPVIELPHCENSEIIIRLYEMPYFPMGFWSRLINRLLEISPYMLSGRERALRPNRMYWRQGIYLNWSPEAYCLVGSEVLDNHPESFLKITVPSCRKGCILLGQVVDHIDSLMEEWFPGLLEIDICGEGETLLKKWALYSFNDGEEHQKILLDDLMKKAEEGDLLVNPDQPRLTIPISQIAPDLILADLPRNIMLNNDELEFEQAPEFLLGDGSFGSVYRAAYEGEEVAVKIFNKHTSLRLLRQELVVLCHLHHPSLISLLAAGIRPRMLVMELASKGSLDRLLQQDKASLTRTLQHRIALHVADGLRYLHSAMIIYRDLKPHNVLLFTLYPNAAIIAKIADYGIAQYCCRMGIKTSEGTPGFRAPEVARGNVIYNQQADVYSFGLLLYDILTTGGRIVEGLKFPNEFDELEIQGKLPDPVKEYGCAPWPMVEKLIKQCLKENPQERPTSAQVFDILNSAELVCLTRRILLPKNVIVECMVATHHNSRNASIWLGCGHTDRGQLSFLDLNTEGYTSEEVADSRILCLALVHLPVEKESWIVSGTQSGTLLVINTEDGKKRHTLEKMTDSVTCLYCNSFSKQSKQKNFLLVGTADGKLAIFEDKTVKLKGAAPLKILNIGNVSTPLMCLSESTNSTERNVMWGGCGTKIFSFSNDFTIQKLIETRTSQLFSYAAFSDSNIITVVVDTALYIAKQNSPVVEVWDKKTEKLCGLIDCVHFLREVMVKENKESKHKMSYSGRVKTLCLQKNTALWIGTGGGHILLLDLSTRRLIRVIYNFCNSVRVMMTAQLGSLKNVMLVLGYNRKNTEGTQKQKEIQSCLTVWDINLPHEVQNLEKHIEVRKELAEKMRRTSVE
Nature of the experiment: LRRK2 kinase inhibition (Kinase-Glo luminescence). Format: biochemical. To be noted: IC50 grade; 25 μmol/L ATP, LRRKtide, 30° C. 2 hours; read-out: Enzyme activity LRRK2. As to the method: Upon completion of the reaction, an equal amount of Kinase-Glo (Promega, Madison, Wis.) solution was added thereto, followed by reaction for 40 minutes. A detection solution was added thereto, followed by further reaction at room temperature for 30 minutes. Then, IC50 of kinase was calculated by measuring the amount of luciferase using a microplate ELISA reader (Bio-Tek).
(Kinase-Glo measures the ATP left after a reaction by luminescence.)
Take `CCNc1nc(Nc2cnn(C)c2)nc2[nH]cc(C#N)c12` [Example 4, 4-(ethylamino)-2-((1-methyl-1H-pyrazole-4-yl)amino)-7H-pyrrolo[2,3-d]pyrimidine-5-carbonitrile]: the IC50 was < 0.01 µM.

For the compound `CCNc1nc(Nc2ccc(C(=O)NC3CCN(C)CC3)cc2OC)nc2[nH]cc(C#N)c12` [Example 56, 4-((5-cyano-4-(ethylamino)-7H-pyrrolo[2,3-d]pyrimidine-2-yl)amino)-3-methoxy-N-(1-methylpiperidine-4-yl)benzamide], the IC50 is < 0.01 µM.

`CNc1nc(Nc2ccc(C(=O)N3CCO[C@H](C)C3)cc2OC)nc2[nH]cc(C#N)c12` [Example 20, (R)-2-((2-methoxy-4-(2-methylmorpholine-4-carbonyl)phenyl)amino)-4-(methylamino)-7H-pyrrolo[2,3-d]pyrimidine-5-carbonitrile]: the IC50 was < 0.01 µM.

As for `COc1cc(C(=O)N2C[C@@H](C)O[C@@H](C)C2)ccc1Nc1nc(NC2(C)CC2)c2c(C#N)c[nH]c2n1` [Example 44, 2-((4-((2R,6S)-2,6-dimethylmorpholine-4-carbonyl)-2-methoxyphenyl)amino)-4-((1-methylcyclopropyl)amino)-7H-pyrrolo[2,3-d]pyrimidine-5-carbonitrile], the IC50 is 0.01 to 0.1 µM.

For `CCNc1nc(Nc2cnn(CCOC)c2Cl)nc2[nH]cc(C#N)c12` [Example 62, 2-((5-chloro-1-(2-methoxyethyl)-1H-pyrazole-4-yl)amino)-4-(ethylamino)-7H-pyrrolo[2,3-d]pyrimidine-5-carbonitrile], the IC50 was < 0.01 µM.

For `COc1cc(C(=O)N2CCO[C@H](C)C2)ccc1Nc1nc(NC2(C)CC2)c2c(C#N)c[nH]c2n1` [Example 42, (R)-2-((2-methoxy-4-(2-methylmorpholine-4-carbonyl)phenyl)amino)-4-((1-methylcyclopropyl)amino)-7H-pyrrolo[2,3-d]pyrimidine-5-carbonitrile], the IC50 is < 0.01 µM.

On to `COc1cc(C(=O)NC2CCN(C3COC3)CC2)c(F)cc1Nc1nc(NC2(C)CC2)c2c(C#N)c[nH]c2n1` [Example 81, 4-((5-cyano-4-((1-methylcyclopropyl)amino)-7H-pyrrolo[2,3-]pyrimidine-2-yl)amino)-2-fluoro-5-methoxy-N-(1-(oxetane-3-yl)piperidine-4-yl)benzamide], for which the IC50 lay in the range of 0.01 to 0.1 µM.

In the case of `CNc1nc(Nc2ccc(C(=O)NC3CCN(C4COC4)CC3)cc2OC)nc2[nH]cc(C#N)c12` [Example 61, 4-((5-cyano-4-(methylamino)-7H-pyrrolo[2,3-d]pyrimidine-2-yl)amino)-3-methoxy-N-(1-(oxetane-3-yl)piperidine-4-yl)benzylamide], the IC50 lay in the range of 0.01 to 0.1 µM.

As for `CNc1nc(Nc2cc(F)c(C(=O)NC3CCN(C)CC3)cc2OC)nc2[nH]cc(C#N)c12` [Example 65, 4-((5-cyano-4-(methylamino)-7H-pyrrolo[2,3-d]pyrimidine-2-yl)amino)-2-fluoro-5-methoxy-N-(1-methylpiperidine-4-yl)benzamide], the IC50 was < 0.01 µM.

Take `CNc1nc(Nc2cn(C(C)C)nc2C)nc2[nH]cc(C#N)c12` [Example 30, 6-((1-isopropyl-3-methyl-1H-pyrazole-4-yl)amino)-4-(methylamino)-1H-pyrrolo[2,3-b]pyrimidine-3-carbonitrile]: the IC50 lay within 0.01 to 0.1 µM.

As for `CNc1nc(Nc2ccc(C(=O)N3CCO[C@@H](C)C3)cc2OC)nc2[nH]cc(C#N)c12` [Example 21, (S)-2-((2-methoxy-4-(2-methylmorpholine-4-carbonyl)phenyl)amino)-4-(methylamino)-7H-pyrrolo[2,3-d]pyrimidine-5-carbonitrile], the IC50 was < 0.01 µM.

As to `CCNc1nc(Nc2ccc(C(=O)N3C[C@@H](C)O[C@@H](C)C3)cc2OC)nc2[nH]cc(C(F)(F)F)c12` [Example 109], the IC50 is > 0.1 µM.

As for `CCNc1nc(Nc2c(C)nn(C(C)(C)C#N)c2C)nc2[nH]cc(C#N)c12` [Example 78, 2-((1-(2-cyanopropane-2-yl)-3,5-dimethyl-1H-pyrazole-4-yl)amino)-4-(ethylamino)-7H-pyrrolo[2,3-d]pyrimidine-5-carbonitrile], the IC50 was > 0.1 µM.

In the case of `COc1cc(C(=O)N2CCC(N3CCOCC3)CC2)c(F)cc1Nc1nc(NC2CC2)c2c(C#N)c[nH]c2n1` [Example 19, 4-(cyclopropylamino)-2-((5-fluoro-2-methoxy-4-(4-morpholinopiperidine-1-carbonyl)phenyl)amino)-7H-pyrrolo[2,3-d]pyrimidine-5-carbonitrile], the IC50 lay in the range of 0.01 to 0.1 µM.

Consider `CCNc1nc(Nc2cc(F)c(C(=O)NC3CCN(C(C)C)CC3)cc2OC)nc2[nH]cc(C#N)c12` [Example 68, 4-((5-cyano-4-(ethylamino)-7H-pyrrolo[2,3-d]pyrimidine-2-yl)amino)-2-fluoro-N-(1-isopropylpiperidine-4-yl)-5-methoxybenzamide], for which the IC50 is < 0.01 µM.

Take `CCNc1nc(Nc2cn(C(C)(C)C#N)nc2C)nc2[nH]cc(C(F)(F)F)c12` [Example 103, 2-(4-((4-(ethylamino)-5-(trifluoromethyl)-7H-pyrrolo[2,3-d]pyrimidine-2-yl)amino)-3-methyl-1H-pyrazole-1-yl)-2-methylpropanenitrile]: the IC50 was < 0.01 µM.

On to `Cc1nn(C(C)C)cc1Nc1nc(NC2(C)CC2)c2c(C#N)c[nH]c2n1` [Example 39, 2-((1-isopropyl-3-methyl-1H-pyrazole-4-yl)amino)-4-((1-methylcyclopropyl)amino)-7H-pyrrolo[2,3-d]pyrimidine-5-carbonitrile], for which the IC50 is < 0.01 µM.

Consider `CCNc1nc(Nc2cn(C(C)(C)C#N)nc2Cl)nc2[nH]cc(C#N)c12` [Example 72, 2-((3-chloro-1-(2-cyanopropane-2-yl)-1H-pyrazole-4-yl)amino)-4-(ethylamino)-7H-pyrrolo[2,3-d]pyrimidine-5-carbonitrile], for which the IC50 was < 0.01 µM.

In the case of `CCNc1nc(Nc2cnn([C@H]3CCN(C4COC4)C[C@@H]3F)c2)nc2[nH]cc(C#N)c12` [Example 53], the IC50 is < 0.01 µM.

As for `COc1cc(C(=O)N2CCOCC2)ccc1Nc1nc(NC2CC2)c2c(C#N)c[nH]c2n1` [Example 16, 4-(cyclopropylamino)-2-((2-methoxy-4-(morpholine-4-carbonyl)phenyl)amino)-7H-pyrrolo[2,3-d]pyrimidine-5-carbonitrile], the IC50 is < 0.01 µM.

In the case of `CCNc1nc(Nc2cnn([C@H]3CCN(C4COC4)C[C@@H]3F)c2Cl)nc2[nH]cc(C(F)(F)F)c12` [Example 102, N^2-(5-chloro-1-((3S,4S)-3-fluoro-1-(oxetane-3-yl)piperidine-4-yl)-1H-pyrazole-4-yl)-N^4-ethyl-5-(trifluoromethyl)-7H-pyrrolo[2,3-d]pyrimidine-2,4-diamine], the IC50 was in the range of 0.01 to 0.1 µM.

Turning to `CCCNc1nc(Nc2ccc(C(=O)N3CCC(N4CCOCC4)CC3)cc2OC)nc2[nH]cc(C#N)c12` [Example 13, 2-((2-methoxy-4-(4-morpholinopiperidine-1-carbonyl)phenyl)amino)-4-(propylamino)-7H-pyrrolo[2,3-d]pyrimidine-5-carbonitrile], the IC50 is < 0.01 µM.

`CCNc1nc(Nc2ccc(C(=O)N3CCN(C)CC3)cc2OC)nc2[nH]cc(C(F)(F)F)c12` [Example 107, (4-((4-(ethylamino)-5-(trifluoromethyl)-7H-pyrrolo[2,3-d]pyrimidine-2-yl)amino)-3-methoxyphenyl)(4-methylpiperazine-1-yl)methanone]: the IC50 was < 0.01 µM.

On to `CNc1nc(Nc2cnn(CCO)c2)nc2[nH]cc(C#N)c12` [Example 69, 2-((1-(2-hydroxyethyl)-1H-pyrazole-4-yl)amino)-4-(methylamino)-7H-pyrrolo[2,3-d]pyrimidine-5-carbonitrile], for which the IC50 was < 0.01 µM.

As for `COc1cc(C(=O)N2CCOCC2)ccc1Nc1nc(O[C@H]2CCOC2)c2c(C#N)c[nH]c2n1` [Example 88, (S)-2-((2-methoxy-4-(morpholine-4-carbonyl)phenyl)amino)-4-((tetrahydrofuran-3-yl)oxy)-7H-pyrrolo[2,3-d]pyrimidine-5-carbonitrile], the IC50 is < 0.01 µM.

With `Cc1nn(C)cc1Nc1nc(NC2(C)CC2)c2c(C#N)c[nH]c2n1` [Example 40, 2-((1,3-dimethyl-1H-pyrazole-4-yl)amino)-4-((1-methylcyclopropyl)amino)-7H-pyrrolo[2,3-d]pyrimidine-5-carbonitrile], the IC50 is < 0.01 µM.

Regarding `CNc1nc(Nc2cc(F)c(C(=O)NC3CCN(C(C)C)CC3)cc2OC)nc2[nH]cc(C#N)c12` [Example 67, 4-((5-cyano-4-(methylamino)-7H-pyrrolo[2,3-d]pyrimidine-2-yl)amino)-2-fluoro-N-(1-isopropylpiperidine-4-yl)-5-methoxybenzamide], the IC50 was < 0.01 µM.

Regarding `CNc1nc(Nc2ccc(C(=O)N3CCN(C)C[C@H]3C)cc2OC)nc2[nH]cc(C#N)c12` [Example 75, (R)-2-((4-(2,4-dimethylpiperazine-1-carbonyl)-2-methoxyphenyl)amino)-4-(methylamino)-7H-pyrrolo[2,3-d]pyrimidine-5-carbonitrile], the IC50 was < 0.01 µM.

As for `CCNc1nc(Nc2ccc(C(=O)N3CCC(F)(F)CC3)cc2OC)nc2[nH]cc(C(F)(F)F)c12` [Example 110, (4,4-difluoropiperidine-1-yl)(4-((4-(ethylamino)-5-(trifluoromethyl)-7H-pyrrolo[2,3-d]pyrimidine-2-yl)amino)-3-methoxyphenyl)methanone], the IC50 is > 0.1 µM.

With `COc1cc(C(=O)NC2CCN(C)CC2)c(F)cc1Nc1nc(NC2(C)CC2)c2c(C#N)c[nH]c2n1` [Example 83, 4-((5-cyano-4-((1-methylcyclopropyl)amino)-7H-pyrrolo[2,3-d]pyrimidine-2-yl)amino)-2-fluoro-5-methoxy-N-(1-methylpiperidine-4-yl)benzamide], the IC50 was < 0.01 µM.

The record behind these values is patent publication US11208412B2 (DAEGU-GYEONGBUK MEDICAL INNOVATION FOUNDATION, priority 2017, dated 2021).
